Experimental data reported in patent US12324818B2, “Generation of alveolar epithelial type 1 (AT1) cells” (TRUSTEES OF BOSTON UNIVERSITY, priority 2022, dated 2025).

B1: keratinocyte growth factor (KGF) protein (protein, UniProt P21781 32-194, looked up)
Fibroblast growth factor 7: CNDMTPEQMATNVNCSSPERHTRSYDYMEGGDIRVRRLFCRTQWYLRIDKRGKVKGTQEMKNNYNIMEIRTVAVGIVAIKGVESEFYLAMNKEGKLYAKKECNEDCNFKELILENHYNTYASAKWTHNGGEMFVALNQKGIPVRGKKTKKEQKTAHFLPMAIT
notes: recombinant human keratinocyte growth factor

Columns and labels:
Assay type in all cases: cell-based, human
iAT2s [1] = assay: AGERtdTomato reporter induction in BU3 NGAT iAT2s (flow cytometry, live imaging); conditions: for effect on AGERtdTomato percentage and MFI: media containing L
Source text: FIG. 5A) BU3 NGAT iAT2s were passaged as usual into 3D Matrigel with CK+DCI+RI medium for 3 days. Medium was then kept the same or switched to LATS inhibitor-based media. CK DCI+L, DCI, or L DCI. (C=Chir, K=rhKGF, L=LATS-IN-1; “DCI” as defined in FIG. 2). FIG. 5B) Representative live fluorescence microscopy of iAT2s (BU3 NGAT clone) at 9 days after changing to the indicated medium, either without (FIG. 5B) or with (FIG. 5C) YAP5SA transduction (Scale bars=500 um in B; 50 um in FIG. 5C). FIG. 5D) Representative flow cytometry plots of NKX2-1GFP and AGERtdTomato 9 days post after changing to cach indicate medium. FIG. 5E) Cell counts and flow cytometry quantification of AGER tdTomato+ percentage and Mean Fluorescence Intensity (MFI) 9 days post medium change. One way ANOVA, N=3 per condition. FIG. 5F) Gene expression of AT1 and AT2 markers by whole well RT-qPCR. (1 way ANOVA, N=3 per condition). FIG. 5G) Whole mount immunofluorescence microscopy of BU3 NGAT organoids in L+DCI. Scale bar=50 um. FIG. 5H) Primary adult human AT2 cells (1° AT2s) were cultured as described 5 and 7 days post plating, medium was changed to published, human-serum containing Alveolar Differentiation Media (ADM) or L+DCI. Whole well RT-qPCR of selected genes 7 days post medium change. 1 way ANOVA, N=3 per condition. FIG. 5I) Experimental schematic: BU3 NGAT iAT1s were grown in L+DCI for 10 days, sorted on AGERtdTomato, and then plated in 3D Matrigel in either L+DCI or CK+DCI. Outgrowths of sorted cells were analyzed after an additional 9 days. FIG. 5J) Representative flow cytometry plots of AGERtdTomato+ outgrowth from (FIG. 5I). FIG. 5K) Quantification of indicated fluorescence (FACS), cell counts, or transcript expression (FIG. 5LL; whole well RT-qPCR) of cells from (FIG. 5I). Control sorted iAT1s in L are freshly sorted AGERtdTomato+ cells after 9 days in L+DCI. (N=3 per condition; K=Student's t test; L=1 way ANOVA). *p<0.05, **p<0.01, ***p<0.001, and […] for all panels.
(§1) iPSCs were first differentiated into iAT2s and passaged as above in 3D cultures in iAT2 medium (CK+DCI) supplemented for the first 3 days after passaging with 10 uM Y-27632 (Tocris). To generate iAT1s, 3 days after passaging iAT2s in 3D, the medium was replaced with “L+DCI”, consisting of [10 uM LATS-IN-1 (“L”; MedChemExpress Cat. No.: HY-138489), 50 nM dexamethasone (“D”; Sigma-Aldrich), 0.1 mM 8-bromoadenosine 3′,5′cyclic monophosphate sodium salt (Sigma-Aldrich; “C”), and 0.1 mM 3-isobutyl-1-methylxanthine (IBMX; Sigma-Aldrich; “I”)]. Cells were cultured up to 16 days in L+DCI in 3D while monitoring AGERtdTomatoexpression as detailed in the text.
0.05% trypsin was used to generate single cell suspensions which were resuspended in sort buffer [HBSS (ThermoFisher) with 2% FBS, 10 uM Y-27632 (Tocris)] with Live/dead stain [Calcein blue (Life technologies) or DRAQ7 (Abcam)]. Cells were sorted based on reporter expression: NKX2-1GFP and AGERtdTomatofor BU3 NGAT, or SFTPCtdTomatofor SPC2B2, as indicated in the text. Cell sorting was performed on a Moflo Astrios EQ (Beckman Coulter) and flow cytometry analysis was performed on an LSRII SORP (BD Biosciences) at the Boston University Flow Cytometry Core Facility. For Edu assays, the Click-iT Plus EdU Alexa Fluor 647 Flow Cytometry Assay Kit (Thermo Fisher Scientific) was used with EdU added 24 hours before cell isolation, and cells fixed in 4% paraformaldehyde (PFA) were analyzed on a Stratedigm (S1000EXI) cytometer with post-processing using Flow Jo software (BD Biosciences). For all other analyses, live non-fixed cells were sorted or analyzed as indicated in the text.

iAT2s [2] = assay: Withdrawal of Chir or KGF in YAP5SA-transduced BU3 NGAT iAT2s; conditions: YAP5SA differentiation model
Source text: FIG. 13A) BU3 NGAT iAT2s were passaged into 3D Matrigel in CK+DCI for 3 days, and then media was switched to media containing LATS-IN-1 and either Chir or KGF and grown for a further 11 days. Representative flow cytometry of NKX2-1GFPand AGERtdTomato. FIG. 13B) Quantification of AGERtdTomatocompared to CK DCI+L and DCI+L quantification in FIGS. 5A-5L. (N=3 per condition, 1 way ANOVA). FIG. 13C) BU3 NGAT iAT2s were transduced with either WT YAP or YAP5SA lentivirus in suspension with polybrene for 4 hours and then replated into 3D Matrigel in CK DCI. After 5 days, media was changed to withdraw one or both growth factors from the media. Cells were analyzed 11 days post media change. FIG. 13D) Cell counts of WT YAP and YAP5SA transduced cells in different medias (2 way ANOVA). First series is CK+DCI, second series is C+DCI, third series is K+DCI, fourth series is DCI. FIG. 13E) Representative flow cytometry of NKX2-1GFP and AGERtdTomato. FIG. 13F) Quantification of AGERtdTomatopercentage and Mean Fluorescence Intensity following YAP5SA transduction. (2 way ANOVA). First series is CK+DCI, second series is C+DCI, third series is K+DCI, fourth series is DCI. FIGS. 13G-13H) Gene expression of AT1 markers, YAP downstream targets, and AT2 markers by whole well RT-qPCR. (N=3, 2 way ANOVA). First series is CK+DCI, second series is C+DCI, third series is K+DCI, fourth series is DCI. […]

iAT2s [3] = assay: Whole well RT-qPCR of AT1/AT2 markers in iAT2s in LATS inhibitor media
Protocol: as §1
For RT-qPCR, whole well or sorted cells were collected and stored in Qiazol (Qiagen, 79306) prior to RNA isolation using RNeasy Plus Mini Kit according to the manufacturer's protocol (Qiagen, 74104), cDNA was then synthesized using MultiScribe™ Reverse Transcriptase (ThermoFisher 4311235). A QuantStudio instrument (Applied Biosciences) and predesigned Taqman probes were used and run in a 384-well format for 40 cycles. Relative expression was normalized to an 18S control and fold change over control cells was calculated using 2-ΔΔCt. Where indicated in the text, RNA extracts from adult primary human distal lung tissue explants, the kind gift of Barry Stripp (Cedars Sinai, Los Angeles) were employed as RT-qPCR controls. RNA was isolated via RNeasy Plus Mini Kit following manufacturer's protocol.

| Molecule | effect on AGERtdTomato percentage and MFI (iAT2s [1]) | effect on AGERtdTomato and AT1 markers by bulk RT-qPCR (iAT2s [2]) | AGERtdTomato induction, % of the NKX2-1GFP+ cells (iAT2s [1]; BU3 NGAT iAT2s in L+DCI, increasing over the following 2 weeks) [%] | time to detectable AGERtdTomato induction in the NKX2-1+ population (iAT2s [1]; L supplementation of iAT2s) [h] | time to morphologic changes resembling YAP5SA-transduced cells (iAT2s [1]; L supplementation of iAT2s) [hours] | iAT2s in which the AT1 program is driven (iAT2s [1]; complete serum free defined media containing LATS inhibitor) | dose yielding greatest frequency and brightness (MFI) of NKX2-1GFP/AGERtdTomato+ cells (iAT2s [1]; dose response testing, medium replaced day 3 after passaging, 2 weeks post passage) [µM] | NKX2-1 expression (iAT2s [3]; iAT2 media vs medias containing LATS-IN-1) | SFTPC expression (iAT2s [3]; medias containing LATS-IN-1) | AGER, CAV1, PDPN, and CLIC5 expression (iAT2s [3]; whole well RT-qPCR, wells containing the LATS inhibitor) |
| --- | --- | --- | --- | --- | --- | --- | --- | --- | --- | --- |
| Cc1c[nH]c(-c2cnc(NCCNc3ccc(C#N)cn3)nc2-c2ccc(Cl)cc2Cl)n1 [Chir, CHIR99021] | significantly inhibitory | inhibitory effects | – | – | – | – | – | – | – | – |
| O=C(N=c1sccn1Cc1ccccc1)c1c[nH]c2ncccc12 [LATS-IN-1, N-(3-benzylthiazol-2(3H)-ylidene)-1H-pyrrolo[2,3-b]pyridine-3-carboxamide] | – | – | 84.97±1.23 | ≤ 72 | ≤ 48 | up to 97% | 10 | unchanged | decreased | significantly upregulated |
| B1 | significantly inhibitory | inhibitory effects | – | – | – | – | – | – | – | – |
